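How tested: cells in 96-well plates exposed to compound for 48 hours at five concentrations. The concentration for 50% growth inhibition is given as GI50.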 Activity calls are given as the source filed them. Rule as the data show it: active = GI50 up to about 1.1 µM and inactive = higher.

Some test systems named below: UACC-62; SF-539; NCI-H522; CCRF-CEM; DU-145; EKVX; LOX IMVI; MDA-N; RPMI-8226; CAKI-1; Hs-578T; OVCAR-3; MDA-MB-231; KM12; MOLT-4; NCI-H226; HCT-15; OVCAR-5; U-251.
What all share (assay): DTP human tumour cell line panel, 48 h

One may read the GI50 as the concentration at which growth is held to half of that of the control. On to `CCOc1cc2c(cc1O)CC[C@@H]1[C@@H]2CC[C@]2(C)[C@@H](O)CC[C@@H]12`, for which the 50% growth inhibitory concentration (GI50) is 0.019 µM (active) in the assay on UACC-62; 0.0158 µM (active) in the assay on SF-539; < 0.0117 µM (active) in the assay on NCI-H522; 0.0274 µM (active) in the assay on CCRF-CEM; 0.0547 µM (active) with DU-145; 0.497 µM (active) in the assay with EKVX. The GI50 in the assay with LOX IMVI was 0.0179 µM (active); in the assay with MDA-N it was 0.0107 µM (active); in the assay with RPMI-8226 it was 0.0252 µM (active); with CAKI-1, 0.0644 µM (active); in the assay with Hs-578T, 0.0306 µM (active); with OVCAR-3 it was 0.0184 µM (active). For the same compound, the GI50 in the assay on MDA-MB-231 is 0.188 µM (active); in the assay on KM12 it was 1.22 µM (inactive); in the assay with MOLT-4 it was 0.0401 µM (active); in the assay with NCI-H226, 0.423 µM (active); in the assay with HCT-15 it was under 0.0138 µM; in the assay on OVCAR-5, 10.8 µM (inactive). The GI50 in the assay on U-251 was 0.0803 µM (active).

For the compound `NC(=O)c1nnsc1NC=O`, the GI50 in the assay on UACC-62, with NCI-H522, in the assay with CCRF-CEM, in the assay with DU-145, with EKVX and in the assay with LOX IMVI was > 100 µM (inactive) each time. Besides, the GI50 with MDA-N, in the assay on RPMI-8226, with CAKI-1, in the assay with Hs-578T, in the assay with MDA-MB-231 and in the assay on KM12 was > 100 µM (inactive) throughout. Further, the GI50 with MOLT-4 was > 100 µM (inactive); in the assay with NCI-H226, > 100 µM (inactive); with HCT-15, over 100 µM; in the assay on OVCAR-5 it was > 100 µM (inactive); in the assay with U-251, > 100 µM (inactive).

Regarding `COc1cc(C2SCC(=O)N2c2ccc(Cl)cc2)cc(I)c1O` (configuration not stated), the GI50 is 0.305 µM (active) with UACC-62; > 35.9 µM (inactive) in the assay on SF-539; 55.8 µM (inactive) with NCI-H522; 46.1 µM (inactive) in the assay with CCRF-CEM; > 100 µM (inactive) with DU-145; 8.13 µM (inactive) with EKVX. The GI50 with MDA-N was 3.37 µM (inactive); in the assay with RPMI-8226 it was 5.85 µM (inactive); in the assay with CAKI-1, 6.43 µM (inactive); in the assay on Hs-578T, 97.1 µM (inactive); in the assay with OVCAR-3, 33.8 µM (inactive); in the assay on MDA-MB-231, > 100 µM (inactive). For the same compound, the GI50 is 7.01 µM (inactive) with KM12; 21.9 µM (inactive) in the assay with MOLT-4; > 90.2 µM (inactive) in the assay on NCI-H226; > 100 µM (inactive) in the assay with OVCAR-5; > 100 µM (inactive) with U-251.

Take `Cc1nc2ccc(S(=O)(=O)O)cc2c(=O)n1-c1ccc(C(=O)NN2C(=O)C(Cl)C2c2ccccc2O)cc1` (configuration not stated): the GI50 in the assay with SF-539 was 92.3 µM (inactive); with NCI-H522, > 100 µM (inactive); in the assay on CCRF-CEM it was > 100 µM (inactive); in the assay on DU-145 it was > 100 µM (inactive); with EKVX it was 60.1 µM (inactive); in the assay with LOX IMVI, > 100 µM (inactive). Besides, the GI50 in the assay with MDA-N, in the assay on RPMI-8226, in the assay on CAKI-1, in the assay on Hs-578T, in the assay on OVCAR-3 and with MDA-MB-231 was > 100 µM (inactive) each time. In addition, the GI50 is > 100 µM (inactive) with KM12; > 100 µM (inactive) with MOLT-4; > 100 µM (inactive) with NCI-H226; over 100 µM in the assay with HCT-15; > 100 µM (inactive) in the assay with OVCAR-5; > 100 µM (inactive) with U-251.

Regarding `CC(=O)N1N=C(c2c(O)ccc3ccccc23)CC1c1ccc(Cl)cc1` (configuration not stated), the GI50 is 14.1 µM (inactive) with UACC-62; 18.4 µM (inactive) with SF-539; 22.9 µM (inactive) in the assay on NCI-H522; 3.8 µM (inactive) with CCRF-CEM; 43.8 µM (inactive) with DU-145; 19.5 µM (inactive) with MDA-N. Also, the GI50 in the assay with RPMI-8226 was 10.5 µM (inactive); in the assay on CAKI-1, 32.9 µM (inactive); in the assay with Hs-578T it was 17.1 µM (inactive); in the assay with OVCAR-3, 14.1 µM (inactive); with MDA-MB-231, 19.1 µM (inactive); in the assay with KM12 it was 13.7 µM (inactive). Also, the GI50 is 10.9 µM (inactive) in the assay on MOLT-4; 40 µM (inactive) with NCI-H226; 28.4 µM in the assay on HCT-15; 14.7 µM (inactive) in the assay with OVCAR-5; 21.9 µM (inactive) in the assay on U-251.

On to `O=C1CC[C@@]23CC(=O)O[C@@H]2CCCC3C1` (some centres not stated), for which the GI50 with UACC-62, with SF-539, in the assay on NCI-H522, with CCRF-CEM, with DU-145 and in the assay on EKVX was > 100 µM (inactive) each time. The GI50 in the assay with LOX IMVI, with MDA-N, in the assay with RPMI-8226, with CAKI-1, in the assay with Hs-578T and in the assay on MDA-MB-231 was > 100 µM (inactive) throughout. In addition, the GI50 with KM12 was > 100 µM (inactive); in the assay on MOLT-4 it was > 100 µM (inactive); in the assay with NCI-H226 it was > 100 µM (inactive); with HCT-15, over 100 µM; in the assay with OVCAR-5, > 100 µM (inactive); in the assay with U-251, > 100 µM (inactive).

As to `COC(=O)c1c(C(=O)OC)c2c3ccccc3n(C)c2c2c1c1ccccc1n2C`, the GI50 was > 100 µM (inactive) in the assay on UACC-62; 45.9 µM (inactive) in the assay on SF-539; 58.1 µM (inactive) in the assay with NCI-H522; > 100 µM (inactive) with CCRF-CEM; > 100 µM (inactive) in the assay on DU-145; 47.1 µM (inactive) with EKVX. Besides, the GI50 is > 100 µM (inactive) with LOX IMVI; > 100 µM (inactive) with MDA-N; > 100 µM (inactive) in the assay with RPMI-8226; > 100 µM (inactive) in the assay with CAKI-1; > 100 µM (inactive) in the assay on Hs-578T; 17.1 µM (inactive) in the assay on MDA-MB-231. The GI50 is > 100 µM (inactive) in the assay with KM12; > 100 µM (inactive) with MOLT-4; > 100 µM (inactive) with NCI-H226; over 100 µM in the assay on HCT-15; 61.1 µM (inactive) in the assay on OVCAR-5; 28.1 µM (inactive) in the assay on U-251.

On to `CCCC(=O)OCC1OC(n2cc(F)c(=O)[nH]c2=O)C(F)C1O` (configuration not stated), for which the GI50 in the assay on UACC-62 is > 31.5 µM (inactive); in the assay with SF-539 it was 0.774 µM (active); in the assay with NCI-H522, > 75 µM (inactive); with CCRF-CEM it was 2.24 µM (inactive); with DU-145, 5.5 µM (inactive); with EKVX it was > 71.4 µM (inactive). The GI50 in the assay on LOX IMVI was 11.4 µM (inactive); with MDA-N, 14.9 µM (inactive); in the assay with RPMI-8226, 6.3 µM (inactive); with CAKI-1, > 10 µM (inactive); in the assay with Hs-578T, 99.3 µM (inactive); in the assay on OVCAR-3, 31 µM (inactive). Moreover, the GI50 in the assay on MDA-MB-231 is 38.1 µM (inactive); with KM12, > 100 µM (inactive); with MOLT-4, > 35.6 µM (inactive); in the assay on NCI-H226, 99.3 µM (inactive); with HCT-15, over 84.7 µM; in the assay on OVCAR-5, > 100 µM (inactive). Further, the GI50 in the assay with U-251 is 10.8 µM (inactive).

As for `OC1(C(F)(F)F)OCCN=C1C(F)(F)F` (configuration not stated), the GI50 in the assay on UACC-62 was > 100 µM (inactive); in the assay on NCI-H522, 40.4 µM (inactive); in the assay on CCRF-CEM, 46.8 µM (inactive); in the assay with DU-145, 41.1 µM (inactive); in the assay with EKVX, > 100 µM (inactive); in the assay on LOX IMVI, > 100 µM (inactive). Also, the GI50 is > 100 µM (inactive) with MDA-N; > 100 µM (inactive) in the assay on RPMI-8226; 52.2 µM (inactive) in the assay on CAKI-1; 17.2 µM (inactive) in the assay with Hs-578T; 52 µM (inactive) in the assay on OVCAR-3; > 100 µM (inactive) in the assay with MDA-MB-231. For the same compound, the GI50 in the assay with KM12 is > 100 µM (inactive); with MOLT-4, 69.8 µM (inactive); in the assay on NCI-H226, > 100 µM (inactive); in the assay on HCT-15, 64.4 µM; in the assay with OVCAR-5 it was > 100 µM (inactive); in the assay on U-251 it was > 100 µM (inactive).

Consider `CC1=NN(c2nc(N)nc(/C(C#N)=C/c3cccn3-c3cc(Cl)cc(Cl)c3)n2)C(C)(C)C1`, for which the GI50 in the assay on UACC-62 is > 100 µM (inactive); with SF-539, > 100 µM (inactive); in the assay on NCI-H522, > 100 µM (inactive); in the assay on CCRF-CEM, 4.47 µM (inactive); in the assay with DU-145, > 100 µM (inactive); in the assay with EKVX, > 100 µM (inactive). Further, the GI50 in the assay on LOX IMVI was 83 µM (inactive); with MDA-N, > 100 µM (inactive); in the assay with RPMI-8226, > 100 µM (inactive); with CAKI-1 it was > 100 µM (inactive); with Hs-578T, 32.9 µM (inactive); in the assay with OVCAR-3 it was > 100 µM (inactive). Also, the GI50 with MDA-MB-231 is 41.2 µM (inactive); with KM12, > 100 µM (inactive); in the assay with NCI-H226, > 100 µM (inactive); with HCT-15 it was over 100 µM; in the assay with OVCAR-5, > 100 µM (inactive); in the assay on U-251, 7.82 µM (inactive).

`CN(C)Cc1cc(C(=O)/C=C/c2ccccc2)cc(CN(C)C)c1O`: the GI50 with SF-539 was 19.7 µM (inactive); in the assay with NCI-H522, 19.5 µM (inactive); in the assay with CCRF-CEM, 19.4 µM (inactive); in the assay with DU-145 it was 33 µM (inactive); in the assay on EKVX, 33.6 µM (inactive); with LOX IMVI, 5.14 µM (inactive). Moreover, the GI50 in the assay on MDA-N is 13.3 µM (inactive); in the assay with RPMI-8226, 11.8 µM (inactive); in the assay with CAKI-1, 36.1 µM (inactive); with Hs-578T it was 36.1 µM (inactive); in the assay with OVCAR-3 it was 18.7 µM (inactive); in the assay with MDA-MB-231, 21.9 µM (inactive). The GI50 was 18.6 µM (inactive) in the assay with KM12; 16.8 µM (inactive) with MOLT-4; 27.9 µM (inactive) in the assay on NCI-H226; 30.3 µM in the assay on HCT-15; 87.5 µM (inactive) with OVCAR-5; 35.3 µM (inactive) with U-251.

The values above are taken from ChEMBL document CHEMBL1201862, “PubChem BioAssay data set” (2004).
